Results: ChEMBL document CHEMBL1144455, “A small molecule-kinase interaction map for clinical kinase inhibitors” (Nat Biotechnol, 2005)

Tests used:
[1] = target: T1, Serine/threonine-protein kinase Nek2 (Homo sapiens, UniProt P51955)
T1 sequence (P51955 whole entry): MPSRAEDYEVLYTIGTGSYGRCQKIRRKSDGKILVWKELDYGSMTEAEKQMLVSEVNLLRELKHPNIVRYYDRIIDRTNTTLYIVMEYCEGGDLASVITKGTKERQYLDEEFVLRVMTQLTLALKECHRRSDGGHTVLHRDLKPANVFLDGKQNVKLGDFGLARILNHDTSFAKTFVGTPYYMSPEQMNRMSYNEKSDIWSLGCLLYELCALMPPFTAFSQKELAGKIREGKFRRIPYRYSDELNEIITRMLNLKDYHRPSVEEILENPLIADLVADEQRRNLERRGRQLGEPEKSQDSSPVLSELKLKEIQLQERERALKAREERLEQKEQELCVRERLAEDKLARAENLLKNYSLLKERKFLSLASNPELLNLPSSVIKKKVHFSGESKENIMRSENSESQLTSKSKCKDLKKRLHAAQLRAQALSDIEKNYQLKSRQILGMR

[2] = target: Serine/threonine-protein kinase 16 (Homo sapiens, UniProt O75716)
Sequence of Serine/threonine-protein kinase 16 (O75716 whole entry): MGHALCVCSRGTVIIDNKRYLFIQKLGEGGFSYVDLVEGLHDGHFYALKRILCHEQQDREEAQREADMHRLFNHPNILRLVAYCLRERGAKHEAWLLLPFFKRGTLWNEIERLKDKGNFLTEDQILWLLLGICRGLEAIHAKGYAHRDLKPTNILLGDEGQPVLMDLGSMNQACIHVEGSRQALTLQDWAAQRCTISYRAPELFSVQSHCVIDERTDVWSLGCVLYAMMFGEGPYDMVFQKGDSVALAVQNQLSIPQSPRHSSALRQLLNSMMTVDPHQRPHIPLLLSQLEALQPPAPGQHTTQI

[3] = target: Tyrosine-protein kinase Fgr (Homo sapiens, UniProt P09769)
Sequence of Tyrosine-protein kinase Fgr (P09769 whole entry): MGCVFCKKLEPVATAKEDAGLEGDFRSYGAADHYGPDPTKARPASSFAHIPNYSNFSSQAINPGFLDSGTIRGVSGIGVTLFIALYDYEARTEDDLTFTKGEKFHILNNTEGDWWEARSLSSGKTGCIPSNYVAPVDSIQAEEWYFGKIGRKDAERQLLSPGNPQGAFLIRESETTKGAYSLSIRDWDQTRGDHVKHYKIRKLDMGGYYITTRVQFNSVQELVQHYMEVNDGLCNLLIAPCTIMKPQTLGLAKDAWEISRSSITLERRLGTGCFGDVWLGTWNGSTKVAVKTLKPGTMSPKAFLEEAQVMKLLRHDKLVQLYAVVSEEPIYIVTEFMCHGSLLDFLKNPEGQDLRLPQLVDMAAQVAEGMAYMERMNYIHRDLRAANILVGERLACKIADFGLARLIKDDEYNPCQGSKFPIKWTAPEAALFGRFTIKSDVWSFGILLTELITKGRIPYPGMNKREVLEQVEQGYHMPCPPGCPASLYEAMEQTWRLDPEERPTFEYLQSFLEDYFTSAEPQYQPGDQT

[4] = target: T2, Dual specificity protein kinase TTK (Homo sapiens, UniProt P33981)
T2 sequence (P33981 whole entry): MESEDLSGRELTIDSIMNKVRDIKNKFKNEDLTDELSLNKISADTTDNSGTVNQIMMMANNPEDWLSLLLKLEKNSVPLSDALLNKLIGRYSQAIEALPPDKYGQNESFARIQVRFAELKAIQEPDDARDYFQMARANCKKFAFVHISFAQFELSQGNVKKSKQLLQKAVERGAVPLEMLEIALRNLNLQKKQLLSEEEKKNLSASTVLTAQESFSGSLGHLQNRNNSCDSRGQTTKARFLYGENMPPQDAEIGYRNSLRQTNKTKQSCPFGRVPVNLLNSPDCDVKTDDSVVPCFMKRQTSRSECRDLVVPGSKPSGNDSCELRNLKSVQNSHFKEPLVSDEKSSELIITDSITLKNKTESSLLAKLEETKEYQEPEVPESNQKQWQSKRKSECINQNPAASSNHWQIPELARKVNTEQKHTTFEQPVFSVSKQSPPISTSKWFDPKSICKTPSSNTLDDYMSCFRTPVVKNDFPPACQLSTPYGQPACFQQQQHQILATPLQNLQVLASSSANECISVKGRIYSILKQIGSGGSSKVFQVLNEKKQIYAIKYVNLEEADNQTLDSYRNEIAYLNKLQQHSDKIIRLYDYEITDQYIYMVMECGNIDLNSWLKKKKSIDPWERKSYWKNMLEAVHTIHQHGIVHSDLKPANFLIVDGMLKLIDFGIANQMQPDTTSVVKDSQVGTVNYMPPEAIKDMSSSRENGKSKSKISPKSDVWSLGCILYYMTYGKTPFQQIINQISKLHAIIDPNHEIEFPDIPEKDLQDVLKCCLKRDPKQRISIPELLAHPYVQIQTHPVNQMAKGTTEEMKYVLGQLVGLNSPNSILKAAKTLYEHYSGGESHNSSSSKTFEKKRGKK

[5] = target: T3, Serine/threonine-protein kinase 17A (Homo sapiens, UniProt Q9UEE5)
T3 sequence (Q9UEE5 whole entry): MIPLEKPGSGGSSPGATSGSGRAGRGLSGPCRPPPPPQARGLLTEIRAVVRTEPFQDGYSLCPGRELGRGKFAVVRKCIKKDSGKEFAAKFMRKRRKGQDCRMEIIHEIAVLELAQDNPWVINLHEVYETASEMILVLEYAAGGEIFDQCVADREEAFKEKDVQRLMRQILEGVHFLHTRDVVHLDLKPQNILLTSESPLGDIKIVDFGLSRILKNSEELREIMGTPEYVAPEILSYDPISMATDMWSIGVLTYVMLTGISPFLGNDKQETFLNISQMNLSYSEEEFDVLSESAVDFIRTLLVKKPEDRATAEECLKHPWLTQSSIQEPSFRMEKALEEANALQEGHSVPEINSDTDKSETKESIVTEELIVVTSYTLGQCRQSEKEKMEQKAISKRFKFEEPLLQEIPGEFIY

[6] = target: Serine/threonine-protein kinase 10 (Homo sapiens, UniProt O94804)
Sequence of Serine/threonine-protein kinase 10 (O94804 whole entry): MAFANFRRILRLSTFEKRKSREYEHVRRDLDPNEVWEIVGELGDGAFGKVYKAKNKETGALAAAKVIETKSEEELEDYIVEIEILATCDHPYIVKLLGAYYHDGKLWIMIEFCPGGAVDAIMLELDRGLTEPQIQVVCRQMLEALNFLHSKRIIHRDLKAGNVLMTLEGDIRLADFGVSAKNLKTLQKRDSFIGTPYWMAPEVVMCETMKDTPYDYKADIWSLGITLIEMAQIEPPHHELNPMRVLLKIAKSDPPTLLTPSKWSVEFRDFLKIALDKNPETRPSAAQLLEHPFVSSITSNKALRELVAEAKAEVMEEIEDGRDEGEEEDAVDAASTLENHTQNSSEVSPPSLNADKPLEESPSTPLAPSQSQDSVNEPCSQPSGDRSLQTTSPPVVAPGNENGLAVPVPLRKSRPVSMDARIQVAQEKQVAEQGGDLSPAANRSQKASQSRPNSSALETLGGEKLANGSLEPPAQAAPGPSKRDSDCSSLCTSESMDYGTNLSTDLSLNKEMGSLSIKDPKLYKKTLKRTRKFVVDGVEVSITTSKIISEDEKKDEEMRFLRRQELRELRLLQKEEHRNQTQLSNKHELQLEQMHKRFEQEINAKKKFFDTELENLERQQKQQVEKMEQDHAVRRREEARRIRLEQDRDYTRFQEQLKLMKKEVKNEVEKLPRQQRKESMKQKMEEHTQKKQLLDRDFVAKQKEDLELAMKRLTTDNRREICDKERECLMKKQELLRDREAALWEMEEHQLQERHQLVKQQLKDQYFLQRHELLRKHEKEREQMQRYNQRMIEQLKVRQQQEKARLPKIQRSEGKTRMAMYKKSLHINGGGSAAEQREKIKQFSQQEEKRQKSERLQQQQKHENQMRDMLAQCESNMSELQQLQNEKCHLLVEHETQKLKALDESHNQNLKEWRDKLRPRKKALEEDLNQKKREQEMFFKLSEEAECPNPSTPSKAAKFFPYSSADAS

Aurora kinase A = target: T4, Aurora kinase A (Homo sapiens, UniProt O14965)
T4 sequence (O14965 whole entry): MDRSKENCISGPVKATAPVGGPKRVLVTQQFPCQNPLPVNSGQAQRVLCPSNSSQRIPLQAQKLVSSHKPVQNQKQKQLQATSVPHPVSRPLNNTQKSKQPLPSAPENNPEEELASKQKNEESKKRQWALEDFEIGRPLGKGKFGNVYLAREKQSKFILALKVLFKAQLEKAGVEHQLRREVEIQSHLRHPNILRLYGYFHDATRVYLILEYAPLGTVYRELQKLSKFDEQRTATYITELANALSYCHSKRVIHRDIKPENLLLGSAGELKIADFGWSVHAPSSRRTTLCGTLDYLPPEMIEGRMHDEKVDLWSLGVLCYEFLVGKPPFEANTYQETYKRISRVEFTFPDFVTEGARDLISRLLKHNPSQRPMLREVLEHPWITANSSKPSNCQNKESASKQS

Measured: Kd

C#Cc1cccc(Nc2ncnc3cc(OCCOC)c(OCCOC)cc23)c1 [ERLOTINIB]
not listed: [6] | Aurora kinase A
Not Active: all other assays above

Cc1ccc(NC(=O)c2ccc(CN3CCN(C)CC3)cc2)cc1Nc1nccc(-c2cccnc2)n1 [IMATINIB]
not listed: [5]
Not Active: all other assays above

O=c1ncn2nc(Sc3ccc(F)cc3F)ccc2c1-c1c(Cl)cccc1Cl [NEFLAMAPIMOD]
not listed: [3]
Not Active: all other assays above

CCOc1cc2ncc(C#N)c(Nc3ccc(F)c(Cl)c3)c2cc1NC(=O)/C=C/CN(C)C [PELITINIB]
Not Active: [2] | [3] | [4] | Aurora kinase A

Oc1ccc(-c2nc(-c3ccc(F)cc3)c(-c3ccncc3)[nH]2)cc1 [SB-202190]
Not Active: all assays above

C[S+]([O-])c1ccc(-c2nc(-c3ccc(F)cc3)c(-c3ccncc3)[nH]2)cc1 (stereo unspecified) [SB-203580]
Not Active: all assays above

CC[C@H](CO)Nc1nc(NCc2ccccc2)c2ncn(C(C)C)c2n1 [SELICICLIB]
not listed: [4]
Not Active: all other assays above

Oc1c2ccccc2c2c3c(cccc13)N=N2 [SP-600125]
Not Active: [1] | [6] | [3]

COc1cc2c(N3CCN(C(=O)Nc4ccc(OC(C)C)cc4)CC3)ncnc2cc1OCCCN1CCCCC1 [TANDUTINIB]
Not Active: all assays above
